From PubChem BioAssay (NCI)
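Assay format: 96-well plates, 48-hour exposure. GI50 is the concentration that inhibits growth by half. TGI: concentration producing complete growth inhibition.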

What was measured:
Assay in all cases: DTP human tumour cell line panel, 48 h
DU-145 prostate = tested on: DU-145 prostate
IGROV1 ovarian = tested on: IGROV1 ovarian
SW-620 colon = tested on: SW-620 colon
CCRF-CEM leukemia = tested on: CCRF-CEM leukemia
SNB-19 CNS = tested on: SNB-19 CNS
BT-549 breast = tested on: BT-549 breast
TK-10 renal = tested on: TK-10 renal
NCI/ADR-RES ovarian = tested on: NCI/ADR-RES ovarian
A498 renal = tested on: A498 renal
MALME-3M melanoma = tested on: MALME-3M melanoma

Row | SMILES | TGI (DU-145 prostate) [µM] | TGI (IGROV1 ovarian) [µM] | TGI (SW-620 colon) [µM] | TGI (CCRF-CEM leukemia) [µM] | TGI (SNB-19 CNS) [µM] | TGI (BT-549 breast) [µM] | TGI (TK-10 renal) [µM] | TGI (NCI/ADR-RES ovarian) [µM] | TGI (A498 renal) [µM] | TGI (MALME-3M melanoma) [µM] | GI50 (DU-145 prostate) [µM] | GI50 (A498 renal) [µM] | GI50 (MALME-3M melanoma) [µM] | GI50 (IGROV1 ovarian) [µM] | GI50 (SW-620 colon) [µM] | GI50 (CCRF-CEM leukemia) [µM] | GI50 (TK-10 renal) [µM] | GI50 (NCI/ADR-RES ovarian) [µM]
1 | COc1ccc(/C=C2\S/C(=N/Nc3nc(-c4ccccc4)cs3)NC2=O)cc1OC | > 100 | 44.2 | > 100 | 22.3 | 89.9 | 81.3 | 59.4 | 49.8 | – | – | – | – | – | – | – | – | – | –
2 | COc1ccc(C2=NN(c3ccccc3)C[N+](c3ccc(OC)cc3)=N2)cc1 | – | > 100 | 61 | 83.4 | 92.1 | – | > 100 | – | > 100 | 47.1 | – | – | – | – | – | – | – | –
3 | CC1(c2ccc[n+](Cc3ccccc3)c2)OCCO1 | – | > 100 | > 100 | > 100 | > 100 | – | > 100 | – | > 100 | > 100 | – | – | – | – | – | – | – | –
4 | COC(=O)C(CSSC[C@H](N/C(C)=C/C(C)=O)C(=O)OC)N/C(C)=C/C(C)=O (stereo partly drawn) | 87.5 | > 100 | > 100 | 71.5 | > 100 | – | 39.1 | > 100 | > 100 | 68.6 | – | – | – | – | – | – | – | –
5 | c1cn(C23C4C5C6C4C2C6C53)cn1 (stereo not drawn) | > 100 | > 100 | > 100 | > 100 | > 100 | > 100 | > 100 | > 100 | > 100 | – | – | – | – | – | – | – | – | –
6 | O=C(c1cc(Cl)ccc1Cl)N1CCN(C(=O)c2cc(Cl)ccc2Cl)CC1 | > 100 | > 100 | > 100 | > 100 | > 100 | > 100 | > 100 | – | > 100 | > 100 | – | – | – | – | – | – | – | –
7 | CCOC(=O)c1cc2c(C(=O)c3ccc([N+](=O)[O-])cc3)c(C(C)=O)ccc2[nH]1 | > 100 | > 100 | > 100 | > 100 | 87.9 | > 100 | > 100 | – | > 100 | – | – | – | – | – | – | – | – | –
8 | N#Cc1c(-c2ccc(Cl)cc2)c2c(n(C3OC(CO)C(O)C(O)C3O)c1=S)CCC2 (stereo not drawn) | > 100 | > 100 | 58.4 | 56.7 | 71 | 65 | > 100 | > 100 | – | 51.8 | – | – | – | – | – | – | – | –
9 | O=c1c2cc(I)ccc2nc(-c2cccs2)n1-c1ccc(O)cc1 | 19.7 | 46.7 | 69.6 | – | 38.8 | 27.9 | 23.3 | 56.2 | – | 20.6 | – | – | – | – | – | – | – | –
10 | Nc1ccccc1CC(O)C(=O)O (stereo not drawn) | > 100 | – | > 100 | > 100 | > 100 | – | > 100 | > 100 | > 100 | > 100 | – | – | – | – | – | – | – | –
11 | COc1ccc(C(=O)/C=C/c2c(Cl)c3c(c(OC)c2Cl)OCC(=O)N3)cc1 | > 100 | > 100 | 3.66 | 8.44 | – | – | 6.09 | 7.08 | 37.2 | 4.99 | 3.17 | 3.07 | 2.28 | 3.28 | 1.81 | 1.87 | 2.55 | 2.62
12 | CC1(C)[C@H]2CC[C@]1(C)[C@H](OC(=O)NNC(=O)O[C@@H]1C[C@@H]3CC[C@@]1(C)C3(C)C)C2 | 32.7 | 30.4 | 72.9 | 76.6 | 39.1 | 42.9 | 38.6 | – | 33.8 | 33.8 | – | – | – | – | – | – | – | –
13 | O=c1oc2ccccc2cc1-c1cn2cc(Cl)ccc2n1 | > 36.8 | 17.7 | 31.7 | > 100 | 3.66 | 21.9 | 22.3 | 2.73 | – | 4.77 | – | – | – | – | – | – | – | –
14 | CCN(C(=S)N[C@H](C(=O)N[C@@H](C)C(=O)OC)C(C)C)c1ccccc1 | > 100 | > 100 | > 100 | > 100 | > 100 | > 100 | > 100 | > 100 | – | 98.2 | – | – | – | – | – | – | – | –
15 | COc1ccc2nc3cc([N+](=O)[O-])ccc3c(Nc3ccc(S(=O)(=O)NC(C)=O)cc3)c2c1 | > 100 | – | > 100 | > 100 | > 100 | > 100 | > 100 | – | > 100 | > 100 | – | – | – | – | – | – | – | –
16 | CCN(CC)c1ccc2cc(C(=O)Nc3cccc4ccccc34)c(=N)oc2c1 | > 100 | > 100 | > 100 | > 100 | > 100 | 62.1 | > 100 | > 100 | – | > 100 | – | – | – | – | – | – | – | –
17 | COc1ccc2c(c1)c(CC(=O)O)c(C)n2C(=O)c1ccc(Cl)cc1 | > 100 | > 100 | > 100 | > 100 | > 100 | – | > 100 | > 100 | – | > 100 | – | – | – | – | – | – | – | –
18 | O=C(OCCN=c1c2ccccc2ccc2ccccc12)c1ccc([N+](=O)[O-])cc1 | > 100 | > 100 | > 100 | > 100 | > 100 | > 100 | > 100 | > 100 | – | > 100 | – | – | – | – | – | – | – | –
19 | C[C@H]1C[C@H]2[C@@H]3C(C)(C)O[C@]4(O)C(=O)[C@]5(O)[C@@H](C)CC[C@H]1[C@]25C(=O)[C@]34C | > 100 | > 100 | > 100 | > 100 | > 100 | – | – | > 100 | 87 | – | – | – | – | – | – | – | – | –
20 | O=C(O)c1ccn(-c2cccc(-n3ccc(C(=O)O)n3)n2)n1 | > 100 | > 100 | > 100 | > 100 | > 100 | > 100 | > 100 | > 100 | – | > 100 | – | – | – | – | – | – | – | –
21 | COc1ccc(C2N(NC(=O)c3ccncc3)C(=O)CS2(=O)=O)cc1F (stereo not drawn) | – | – | > 100 | > 100 | > 100 | – | > 100 | – | > 100 | > 100 | – | – | – | – | – | – | – | –
22 | Nc1ncnc2c1nnn2C1CCC(CP(=O)(O)O)C1 (stereo not drawn) | > 100 | > 100 | > 100 | > 100 | > 100 | – | > 100 | > 100 | – | > 100 | – | – | – | – | – | – | – | –
23 | O=C1/C(=N\S(=O)(=O)c2ccccc2)C([n+]2ccc(Cc3ccccc3)cc2)=C([O-])c2ccccc21 | 2.89 | 4.92 | 1.96 | > 100 | 3.3 | 2.72 | 6.2 | 18.3 | – | 1.73 | – | – | – | – | – | – | – | –
